Measurements from article PMC2913955, “Whole-cell fungal transformation of precursors into dyes” (Microbial Cell Factories, 2010).
≈ marks a conversion by molar mass, not a printed value. Where “and” joins values, the source holds several entries; their conditions need not be identical. Equal values may be shown once. Marks after values point to notes of the source that are not given here.

Experiments:
[1] = Cyclic voltammetry of precursors (oxidation and reduction potentials); type: physicochemical; conditions: for Eo (oxidation potential) / Er (reduction potential): 1 mM precursor, 100 mM Na-tartrate buffer pH 4.5, graphite working electrode, Ag/AgCl reference; for oxidation and reduction peaks: pH 4.5, scan rates of 25 to 200 mV/s
Procedure: To find correlations between the degree of precursor transformation by fungi and its oxidation potential, cyclic voltammetry (CV) was done. All the tested compounds were characterized using CV at a graphite working electrode at pH 4.5.
Cyclic voltammetry of the tested precursors was performed using an MTM-Anko apparatus type M161 (Poland) equipped with a graphite working electrode, a platinum counter electrode, and an Ag/AgCl reference electrode. The precursors were dissolved using 100 mM Na-tartrate buffer, pH 4.5, to 1 mM final concentration. […] All potentials in this work were referred to the Ag/AgCl reference electrode.

[2] = Autoxidation of precursors on agar plates without actively growing mycelium (control samples); type: physicochemical; conditions: 1 mM precursor in GPA agar; for Precursors autoxidation: without mycelium; for autoxidation (in words): control samples without mycelium; as to Precursors autoxidation: key: - no; -/+ - slightly; + high; ++ very high
Procedure: (§1) Agar-plate screening of several different precursors, benzoic and naphthalene derivatives was performed using fungal biomass as a biocatalyst (Table 1). Among these precursors were chemicals consisting of amino-, hydroxy-, nitro-, sulfonic- and carboxy- substituents. The ability of the fungi to grow in the presence of the precursors and to transform the latter into coloured products was monitored during 14 days of the experiment. […] In order to check the autoxidation ability of the precursors, the appearance of their coloured products without the presence of actively growing mycelium was monitored (control samples).
(§2) The agar-plate screening test was performed using sterile 24-well tissue culture plates (16.2 mm in diameter). Each well contained 2.5 mL (± 0.2 mL) of sterile GPA medium with the addition of 2% agar and a precursor at a concentration of 1 mM. Each well was inoculated with one agar plug (3 mm in diameter) from the leading edge of colony, which had been maintained on MEA for at least 7 days at 25°C. The plates were incubated at 25°C, and the ability of the fungi to grow and transform the precursors into coloured products was monitored over the next 14 days.

[3] = tested on: Caco-2 cells; assay: Neutral Red uptake assay (NRU) cytotoxicity; type: cell-based, human; conditions: Caco-2, precursor itself; for IC50: Homo sapiens
Procedure: The cytotoxicity of precursors and products was tested using the Neutral Red uptake assay (NRU) with Caco-2 cells (Table 5). The EU classifies a chemical to be not environmentally toxic if the IC50 is above 0.1 mg/mL, which was the case for the selected products as measured with the NRU test. […] In the case of the dyes obtained after transformation of AHBS and ANS by FF25, AB123, or TV7, all the samples had IC50's of more than 1 mg/mL and were essentially non-toxic. In the case of control cultures, growing without the addition of precursors, only the sample of TV7 was slightly toxic (IC50 = 0.85 mg/mL) while other control cultures (AB123, CU139, and FF25) had IC50's higher than one (Table 5).
The toxicity of precursors and products was evaluated using the Neutral Red uptake assay (NRU) with Caco-2 human intestinal cell-line as an in vitro test system. Samples of products were lyophilized and then dissolved in dimethyl sulfoxide (DMSO) to a stock solution concentration of 100 mg/mL. The cytotoxicity of dyes was expressed as the half-maximal inhibitory concentration (IC50 - mg/mL), where values higher than 1 represented low cytotoxicity, values within the range from 0.1 to 1 represented medium cytotoxicity, and values below 0.1 represented high cytotoxicity of samples [10]. Additionally, the cytotoxicity of the fungal liquid culture without precursors and products was checked as a control.

[4] = tested on: Fomes fomentarius (FF25); assay: Agar-plate screening test, transformation of precursors into coloured products; type: cell-based; conditions: strain FF25, 1 mM precursor
Procedure: as §1
(§3) The colour intensity of the products obtained during the biotransformation of the precursors by fungi was analyzed after 7 days of cultivation. This intensity was expressed by different numbers; the value 0 expressed a lack of colour and the values in the range from 1 to 4 expressed a rising intensity of colour.
as §2

[5] = tested on: Abortiporus biennis (AB123); assay: as above; type: cell-based; conditions: strain AB123, 1 mM precursor
Procedure: as §1, §3, §2

[6] = tested on: Cerrena unicolor (CU139); assay: as above; type: cell-based; conditions: strain CU139, 1 mM precursor
Procedure: as §1, §3, §2

[7] = tested on: Trametes versicolor (TV7); assay: as above; type: cell-based; conditions: strain TV7, 1 mM precursor
Procedure: as §1, §3, §2

| Structure (SMILES) | Eo (oxidation potential) ([1]; scan rate 50 mV/s) | Precursors autoxidation [2] | Er (reduction potential) ([1]; scan rate 50 mV/s) | autoxidation (in words) [2] | also measured |
| --- | --- | --- | --- | --- | --- |
| Nc1ccc(S(=O)(=O)O)c(N)c1 [2,4DABS, 2,4-diaminobenzenesulfonic acid] | 818 mV | - |  |  |  |
| Nc1ccc(N)c(S(=O)(=O)O)c1 [2,5DABS, 2,5-diaminobenzenesulfonic acid] | 433 mV | -/+ | -356 mV and -356^a mV | very slight autoxidation | IC50 [3]: > 1000 µg/mL |
| Nc1cc(S(=O)(=O)O)ccc1O [AHBS, 3-amino-4-hydroxybenzenesulfonic acid] | 518 mV | - | -103 mV |  | IC50 [3]: > 1000 µg/mL |
| Nc1cc(S(=O)(=O)O)cc([N+](=O)[O-])c1O [AHNBS, 3-amino-4-hydroxy-5-nitrobenzenesulfonic acid] | 579 mV | + | -92 mV | very rapid and very intensive autoxidation |  |
| Nc1cccc2c(S(=O)(=O)O)cccc12 [ANS, 5-amino-1-naphthalenesulfonic acid] | 680 mV | - |  |  | IC50 [3]: > 1000 µg/mL |
| Oc1ccccc1O [Cat, 1,2-dihydroxybenzene] | 548 mV | - | 285 mV |  |  |
| Oc1ccc2ccc(O)cc2c1 [DHN, 2,7-dihydroxynaphtalene] | 672 mV | -/+ |  | very slight autoxidation | IC50 Precursor [3]: 107 ± 3.6 µg/mL (≈ 668 µM) |
| O=S(=O)([O-])c1ccc2cc(O)ccc2c1.[Na+] [HNSA, 6-hydroxy-2-naphthalenesulfonic acid sodium salt] | 893 mV | - | -144 mV |  |  |
| Nc1ncccc1O [Precursor 2A3HP, 2-amino-3-hydroxypyridine] | 647 mV | -/+ |  | very slight autoxidation | IC50 [3]: 55 ± 28 µg/mL (≈ 499 µM) |
| O=Cc1ccccc1S(=O)(=O)[O-].[Na+] [Precursor 2FBSA, 2-formylbenzenesulfonic acid sodium salt] |  | - |  |  | oxidation and reduction peaks [1]: did not exhibit |
| O.O.O.O.Oc1ccccc1-c1ccccc1.[Na] [Precursor 2PP, 2-phenylphenol sodium salt tetrahydrate] | 790 mV | - |  |  | growth of mycelium in the presence of precursor [4]: unable to grow; growth of mycelium in the presence of precursor [5]: unable to grow; growth of mycelium in the presence of precursor [6]: unable to grow; growth of mycelium in the presence of precursor [7]: unable to grow |
| Nc1cccc(S(=O)(=O)O)c1 [Precursor 3ABS, 3-aminobenzenesulfonic acid] | 968 mV | - | 5.4^a mV |  |  |
| Nc1c(O)cc(S(=O)(=O)O)c2ccccc12 [Precursor 4AHNS, 4-amino-3-hydroxy-1-naphthalenesulfonic acid] | 251 mV | ++ |  | very rapid and very intensive autoxidation |  |
| O.O=C(O)c1cc(S(=O)(=O)O)ccc1O [Precursor 5SSA, 5-sulfosalicylic acid hydrate] |  | - |  |  | oxidation and reduction peaks [1]: did not exhibit |
| Nc1ccc2cc(S(=O)(=O)O)cc(O)c2c1 [Precursor 6AHNS, 6-amino-4-hydroxy-2-naphthalenesulfonic acid] | 499 mV | -/+ |  | very slight autoxidation |  |
| Nc1ccccc1S(=O)(=O)O [Precursor A2SA, aniline-2-sulfonic acid] | 1013 mV | - | -0.5 mV |  |  |
| O=S(=O)(O)c1cc(O)c(O)c(S(=O)(=O)O)c1 [dHBdSA, 4,5-dihydroxy-1,3-benzene-disulfonic acid] |  | - |  |  | Eo (oxidation potential) ([1]; scan rate 25 mV/s): 914^b mV |
